How the values were obtained:
Test in all cases: relative viability (nuclei count vs DMSO), 5 days (fraction); higher = more cells survive
Selisistat + Pemetrexed = compound: C1CC(C2=C(C1)C3=C(N2)C=CC(=C3)Cl)C(=O)N [Selisistat] + Nc1nc2[nH]cc(CCc3ccc(C(=O)N[C@@H](CCC(=O)O)C(=O)O)cc3)c2c(=O)[nH]1 [Pemetrexed] (partner 0.2 µM)
Method in brief: (§1)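 Relative viability is defined as nuclei in treated wells over nuclei in vehicle wells. Duplicate plates were run and medians reported. Lung cancer cell lines in 1536-well plates were dosed by pin tool one day after seeding, with one drug or with a fixed anchor-drug dose plus five library-drug doses (not always all listed) in √10 steps, and nuclei were counted after 5 days.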

Serdemetan + OSI-027 = compound: c1ccc2c(CCNc3ccc(Nc4ccncc4)cc3)c[nH]c2c1 [Serdemetan] + COc1cccc2cc(-c3nc([C@H]4CC[C@H](C(=O)O)CC4)n4ncnc(N)c34)[nH]c12 [OSI-027] (partner 0.5 µM)
Method in brief: as §1

Serdemetan + Olaparib = compound: c1ccc2c(CCNc3ccc(Nc4ccncc4)cc3)c[nH]c2c1 [Serdemetan] + O=C(c1cc(Cc2n[nH]c(=O)c3ccccc23)ccc1F)N1CCN(C(=O)C2CC2)CC1 [Olaparib] (partner 8 µM)
Method in brief: as §1

Serdemetan + Decitabine = compound: c1ccc2c(CCNc3ccc(Nc4ccncc4)cc3)c[nH]c2c1 [Serdemetan] + Nc1ncn([C@H]2C[C@H](O)[C@@H](CO)O2)c(=O)n1 [Decitabine] (partner 2 µM)
Method in brief: as §1

Row | Cell Line | relative viability (Selisistat + Pemetrexed; first compound 0.4 µM) | relative viability (Selisistat + Pemetrexed; first compound 1.265 µM) | relative viability (Selisistat + Pemetrexed; first compound 4 µM) | relative viability (Selisistat + Pemetrexed; first compound 12.65 µM) | relative viability (Selisistat + Pemetrexed; first compound 40 µM) | relative viability (Serdemetan + OSI-027; first compound 0.04 µM) | relative viability (Serdemetan + OSI-027; first compound 0.1265 µM) | relative viability (Serdemetan + OSI-027; first compound 0.4 µM) | relative viability (Serdemetan + OSI-027; first compound 1.265 µM) | relative viability (Serdemetan + OSI-027; first compound 4 µM) | relative viability (Serdemetan + Olaparib; first compound 0.04 µM) | relative viability (Serdemetan + Olaparib; first compound 0.1265 µM) | relative viability (Serdemetan + Olaparib; first compound 0.4 µM) | relative viability (Serdemetan + Olaparib; first compound 1.265 µM) | relative viability (Serdemetan + Olaparib; first compound 4 µM) | relative viability (Serdemetan + Decitabine; first compound 0.04 µM) | relative viability (Serdemetan + Decitabine; first compound 0.1265 µM) | relative viability (Serdemetan + Decitabine; first compound 0.4 µM) | relative viability (Serdemetan + Decitabine; first compound 1.265 µM) | relative viability (Serdemetan + Decitabine; first compound 4 µM)
1 | HCC-44 | 0.681 | 0.675 | 0.655 | 0.685 | 0.691 | 0.482 | 0.498 | 0.598 | 0.429 | 0.452 | 0.94 | 0.943 | 0.979 | 0.851 | 0.815 | 0.895 | 0.954 | 0.925 | 0.865 | 0.961
2 | HCC-827 | 0.258 | 0.266 | 0.266 | 0.256 | 0.251 | 0.787 | 0.743 | – | 0.696 | 0.627 | 0.631 | 0.594 | – | 0.509 | 0.306 | 0.371 | 0.243 | – | 0.263 | 0.305
3 | NCI-H1623 | – | – | – | – | – | 0.457 | 0.395 | 0.359 | 0.389 | 0.395 | – | – | – | – | – | – | – | – | – | –
4 | NCI-H2347 | 0.526 | 0.425 | 0.374 | 0.411 | 0.432 | 0.412 | 0.501 | 0.431 | 0.4 | 0.258 | 0.568 | 0.535 | 0.59 | 0.424 | 0.439 | 0.638 | 0.615 | 0.583 | 0.474 | 0.527
5 | PC-14 | 0.116 | 0.152 | 0.123 | 0.139 | 0.137 | 0.843 | 0.767 | 0.139 | 0.759 | 0.514 | 0.307 | 0.261 | – | 0.204 | 0.167 | 0.186 | 0.202 | – | 0.125 | 0.138
6 | NCI-H1651 | 0.64 | 0.673 | 0.51 | 0.519 | 0.497 | 0.627 | 0.571 | 0.777 | 0.369 | 0.313 | 0.179 | 0.165 | 0.159 | 0.131 | 0.141 | 0.486 | 0.414 | 0.497 | 0.275 | 0.289
7 | HARA | 0.266 | 0.27 | – | 0.303 | 0.215 | 0.528 | 0.703 | 0.395 | 0.274 | 0.304 | 0.875 | 0.892 | 0.674 | 0.476 | 0.362 | 0.542 | 0.47 | 0.409 | 0.344 | 0.379
8 | NCI-H1650 | 0.359 | 0.348 | 0.354 | 0.397 | 0.326 | 0.664 | 0.701 | 0.412 | 0.532 | 0.473 | 0.692 | 0.781 | 0.802 | 0.671 | 0.419 | 0.408 | 0.435 | 0.411 | 0.422 | 0.266
9 | NCI-H1395 | 0.97 | 0.968 | – | 0.639 | 0.908 | 0.526 | 0.637 | 0.734 | 0.651 | 0.418 | 0.445 | 0.442 | 0.443 | 0.478 | 0.399 | 0.772 | 0.694 | 0.687 | 0.637 | 0.57
10 | LU99A | 0.169 | 0.176 | 0.21 | 0.184 | 0.163 | 0.282 | 0.313 | 0.275 | 0.216 | 0.29 | 0.245 | 0.185 | 0.17 | 0.124 | 0.136 | 0.943 | 0.84 | 0.775 | 0.419 | 0.277
11 | NCI-H1355 | 1.12 | 1.08 | 1 | 1.08 | 1.11 | 0.465 | 0.452 | 0.35 | 0.35 | 0.382 | 0.672 | 0.709 | 0.648 | 0.471 | 0.566 | 0.382 | 0.34 | 0.306 | 0.288 | 0.31
12 | HCC-78 | 0.917 | 0.949 | 0.924 | 0.774 | 0.878 | 0.401 | 0.297 | 0.321 | 0.308 | 0.289 | 0.847 | 0.731 | 0.749 | 0.79 | 0.592 | 0.659 | 0.718 | 0.698 | 0.638 | 0.525
13 | NCI-H1563 | 0.831 | 0.857 | 0.713 | 0.664 | 0.611 | 0.747 | 0.74 | 0.732 | 0.62 | 0.614 | – | – | – | – | – | – | – | – | – | –
14 | HCC-15 | 0.241 | 0.222 | – | 0.23 | 0.213 | 0.643 | 0.75 | 0.624 | 0.452 | 0.522 | 0.673 | 0.667 | 0.57 | 0.38 | 0.386 | 0.614 | 0.599 | 0.56 | 0.511 | 0.341
15 | EKVX | 0.348 | 0.314 | 0.361 | 0.342 | 0.404 | 0.731 | 0.708 | 0.671 | – | 0.588 | 0.852 | 0.851 | – | – | 0.66 | 0.322 | 0.33 | – | – | 0.291
16 | NCI-H2087 | 0.681 | 0.624 | – | 0.634 | 0.691 | 0.548 | 0.641 | 0.573 | 0.324 | 0.241 | 0.481 | 0.473 | 0.433 | 0.207 | 0.217 | 0.285 | 0.23 | 0.251 | 0.145 | 0.135
17 | LK-2 | 0.271 | 0.32 | 0.232 | 0.265 | 0.252 | 0.205 | 0.23 | 0.216 | 0.193 | 0.214 | 0.715 | 0.645 | 0.782 | 0.444 | 0.57 | 0.37 | 0.29 | 0.274 | 0.223 | 0.283
18 | NCI-H1437 | 0.321 | 0.328 | 0.321 | 0.28 | 0.299 | 0.872 | 0.865 | 0.868 | 0.585 | 0.729 | 0.661 | 0.612 | 0.62 | 0.677 | 0.537 | 0.511 | 0.5 | 0.582 | 0.492 | 0.427

Source: the supplement of paper PMC10307832
